pIC50: −log10 of the molar value.
molecular target: T1, PERK (Homo sapiens, UniProt Q9NZJ5); test: PERK enzyme assay (HTRF); type: biochemical; conditions: PERK Enzyme (500 μM ATP) IC50; at least one experimental run; read-out: PERK Activity
T1 sequence (Q9NZJ5 30-1116): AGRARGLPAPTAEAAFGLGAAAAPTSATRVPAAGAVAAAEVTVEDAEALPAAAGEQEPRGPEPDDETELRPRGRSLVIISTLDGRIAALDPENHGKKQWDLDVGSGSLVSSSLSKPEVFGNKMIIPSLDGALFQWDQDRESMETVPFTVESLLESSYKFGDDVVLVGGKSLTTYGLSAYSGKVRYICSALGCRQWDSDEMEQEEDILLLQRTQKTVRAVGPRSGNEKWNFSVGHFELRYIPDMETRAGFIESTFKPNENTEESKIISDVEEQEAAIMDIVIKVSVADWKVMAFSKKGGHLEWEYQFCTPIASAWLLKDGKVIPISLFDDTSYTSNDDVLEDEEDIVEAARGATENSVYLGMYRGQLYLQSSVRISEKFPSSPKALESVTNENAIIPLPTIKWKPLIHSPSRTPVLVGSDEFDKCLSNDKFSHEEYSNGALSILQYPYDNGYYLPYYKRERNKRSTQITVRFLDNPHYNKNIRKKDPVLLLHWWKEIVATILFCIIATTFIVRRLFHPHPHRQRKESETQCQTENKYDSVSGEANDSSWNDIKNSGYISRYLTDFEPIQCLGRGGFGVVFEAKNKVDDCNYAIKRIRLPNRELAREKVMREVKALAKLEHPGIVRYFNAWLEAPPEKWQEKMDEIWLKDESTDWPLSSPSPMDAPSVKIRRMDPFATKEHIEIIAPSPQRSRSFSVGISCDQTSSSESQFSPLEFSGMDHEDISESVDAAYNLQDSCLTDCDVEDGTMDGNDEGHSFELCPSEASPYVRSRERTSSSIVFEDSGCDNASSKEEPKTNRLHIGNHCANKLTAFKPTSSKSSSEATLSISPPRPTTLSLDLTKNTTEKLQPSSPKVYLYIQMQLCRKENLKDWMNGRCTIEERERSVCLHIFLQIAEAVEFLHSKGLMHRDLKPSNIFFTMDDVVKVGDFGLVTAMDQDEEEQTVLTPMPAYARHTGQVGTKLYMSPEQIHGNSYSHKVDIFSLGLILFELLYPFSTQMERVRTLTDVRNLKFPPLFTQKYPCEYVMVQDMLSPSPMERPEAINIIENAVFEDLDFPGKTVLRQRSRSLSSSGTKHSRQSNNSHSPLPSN
How it was run: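 HTRF read-out after 2 h of EDTA-quenched reactions, detecting phospho-eIF2α with Eu/APC reagents, gave IC50 values. Reaction: 0.75 nM GST-PERK, 30–60 min compound pre-incubation (max 1% DMSO), then 60 min with 40 nM biotin-eIF2α and 500 μM ATP, HEPES pH 7.5 buffer.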

| Compound | pIC50 |
| --- | --- |
| Cc1nc(N)c2c(-c3ccc(N4CC(c5ccc(F)cc5)N(C)C4=O)cc3F)cn(C3CC3)c2n1 (single isomer, unassigned) [Example 90, 1-(4-(4-amino-7-cyclopropyl-2-methyl-7H-pyrrolo[2,3-d]pyrimidin-5-yl)-3-fluorophenyl)-4-(4-fluorophenyl)-3-methylimidazolidin-2-one] | > 7.00 |
| COc1cccc(C2CN(c3ccc(-c4cn(C)c5ncnc(N)c45)c(F)c3)C(=O)N2C)c1 (stereo not drawn) [Example 102, 1-(4-(4-amino-7-methyl-7H-pyrrolo[2,3-d]pyrimidin-5-yl)-3-fluorophenyl)-4-(3-methoxyphenyl)-3-methylimidazolidin-2-one] | 6.00 to 7.00 |
| CC(C)n1cc(-c2ccc(N3CC(c4cc(F)ccc4F)N(C)C3=O)cc2F)c2c(N)ncnc21 (single isomer, unassigned) [Example 87, 1-(4-(4-amino-7-isopropyl-7H-pyrrolo[2,3-d]pyrimidin-5-yl)-3-fluorophenyl)-4-(2,5-difluorophenyl)-3-methylimidazolidin-2-one] | 6.00 to 7.00 |
| CN1C(=O)N(c2ccc(-c3cn(C4CC4)c4ncnc(N)c34)c(F)c2)CC1c1cc(F)ccc1F (single isomer, unassigned) [Example 146, 1-(4-(4-amino-7-cyclopropyl-7H-pyrrolo[2,3-d]pyrimidin-5-yl)-3-fluorophenyl)-4-(2,5-difluorophenyl)-3-methylimidazolidin-2-one] | > 7.00 |
| CN1C(=O)N(c2ccc(-c3cn(C)c4ncnc(N)c34)c(F)c2)CC1c1cccc(Cl)c1F (stereo not drawn) [Example 26, 1-(4-(4-amino-7-methyl-7H-pyrrolo[2,3-d]pyrimidin-5-yl)-3-fluorophenyl)-4-(3-chloro-2-fluorophenyl)-3-methylimidazolidin-2-one] | 6.00 to 7.00 |
| CN1C(=O)N(c2ccc(-c3cn(C)c4ncnc(N)c34)c(F)c2)CC1c1ccc(F)cc1F (stereo not drawn) [Example 24, 1-(4-(4-amino-7-methyl-7H-pyrrolo[2,3-d]pyrimidin-5-yl)-3-fluorophenyl)-4-(2,4-difluorophenyl)-3-methylimidazolidin-2-one] | 6.00 to 7.00 |
| Cn1cc(-c2ccc(N3CC(C4CCCCC4)CC3=O)cc2F)c2c(N)ncnc21 (stereo not drawn) [Example 6, 1-(4-(4-Amino-7-methyl-7H-pyrrolo[2,3-d]pyrimidin-5-yl)-3-fluorophenyl)-4-cyclohexyl pyrrolidin-2-one] | < 6.00 |
| CN1C(=O)N(c2ccc(-c3cn(C4CC4)c4ncnc(N)c34)c(Cl)c2)CC1c1cc(F)cc(F)c1 (single isomer, unassigned) [Example 129, 1-(4-(4-amino-7-cyclopropyl-7H-pyrrolo[2,3-d]pyrimidin-5-yl)-3-chlorophenyl)-4-(3,5-difluorophenyl)-3-methylimidazolidin-2-one] | > 7.00 |
| CN1C(=O)N(c2ccc(-c3cn(C)c4ncnc(N)c34)c(F)c2)CC1c1cc(F)cc(F)c1 (single isomer, unassigned) [Example 101, 1-(4-(4-amino-7-methyl-7H-pyrrolo[2,3-d]pyrimidin-5-yl)-3-fluorophenyl)-4-(3,5-difluorophenyl)-3-methylimidazolidin-2-one] | 6.00 to 7.00 |
| CN1C(=O)N(c2ccc(-c3cn(C4CC4)c4ncnc(N)c34)c(F)c2)CC1c1cc(F)c(F)cc1F (single isomer, unassigned) [Example 160, 1-(4-(4-amino-7-cyclopropyl-7H-pyrrolo[2,3-d]pyrimidin-5-yl)-3-fluorophenyl)-3-methyl-4-(2,4,5-trifluorophenyl)imidazolidin-2-one] | > 7.00 |
| CCN1C(=O)N(c2ccc(-c3nn(C)c4ncnc(N)c34)c(F)c2)CC1c1ccc(F)cc1F (stereo not drawn) [Example 98, 1-(4-(4-amino-1-methyl-1H-pyrazolo[3,4-d]pyrimidin-3-yl)-3-fluorophenyl)-4-(2,4-difluorophenyl)-3-ethylimidazolidin-2-one] | 6.00 to 7.00 |
| CN1C(=O)N(c2ccc(-c3cn(C)c4ncnc(N)c34)c(Cl)c2)CC1c1cc(F)cc(F)c1 (stereo not drawn) [Example 121, 1-(4-(4-amino-7-methyl-7H-pyrrolo[2,3-d]pyrimidin-5-yl)-3-chlorophenyl)-4-(3,5-difluorophenyl)-3-methylimidazolidin-2-one] | > 7.00 |
| CN1C(=O)N(c2ccc(-c3cn(C)c4ncnc(N)c34)c(F)c2)CC1c1cc(F)cc(C(F)(F)F)c1 (stereo not drawn) [Example 84, 1-(4-(4-amino-7-methyl-7H-pyrrolo[2,3-d]pyrimidin-5-yl)-3-fluorophenyl)-4-(3-fluoro-5-(trifluoromethyl)phenyl)-3-methylimidazolidin-2-one] | 6.00 to 7.00 |
| Cc1nc(N)c2c(-c3ccc(N4CC(c5ccc(F)cc5F)N(C)C4=O)cc3F)nn(C)c2n1 (single isomer, unassigned) [Example 13, 1-(4-(4-amino-1,6-dimethyl-1H-pyrazolo[3,4-d]pyrimidin-3-yl)-3-fluorophenyl)-4-(2,4-difluorophenyl)-3-methylimidazolidin-2-one] | < 6.00 |
| Cc1nc(N)c2c(-c3ccc(N4CC(c5cncc(F)c5)N(C)C4=O)cc3F)cn(C)c2n1 (single isomer, unassigned) [Example 111, 1-(4-(4-amino-2,7-dimethyl-7H-pyrrolo[2,3-d]pyrimidin-5-yl)-3-fluorophenyl)-4-(5-fluoropyridin-3-yl)-3-methylimidazolidin-2-one] | 6.00 to 7.00 |
| CCN1C(=O)N(c2ccc(-c3cn(C)c4ncnc(N)c34)c(F)c2)CC1c1cc(F)cc(C(F)(F)F)c1 (stereo not drawn) [Example 85, 1-(4-(4-amino-7-methyl-7H-pyrrolo[2,3-d]pyrimidin-5-yl)-3-fluorophenyl)-3-ethyl-4-(3-fluoro-5-(trifluoromethyl)phenyl)imidazolidin-2-one] | 6.00 to 7.00 |
| CN1C(=O)N(c2ccc(-c3cn(C)c4ncnc(N)c34)c(F)c2)CC1C1CCCCCC1 (stereo not drawn) [Example 138, 1-(4-(4-amino-7-methyl-7H-pyrrolo[2,3-d]pyrimidin-5-yl)-3-fluorophenyl)-4-cycloheptyl-3-methylimidazolidin-2-one] | > 7.00 |
| CCN1C(=O)N(c2ccc(-c3cn(C)c4nc(C)nc(N)c34)c(F)c2)CC1c1cc(F)ccc1F (single isomer, unassigned) [Example 45, 1-(4-(4-amino-2,7-dimethyl-7H-pyrrolo[2,3-d]pyrimidin-5-yl)-3-fluorophenyl)-4-(2,5-difluorophenyl)-3-ethylimidazolidin-2-one] | < 6.00 |
| CN1C(=O)N(c2ccc(-c3cn(C)c4ncnc(N)c34)c(F)c2)CC1c1ccc(F)c(Cl)c1 (stereo not drawn) [Example 131, 1-(4-(4-amino-7-methyl-7H-pyrrolo[2,3-d]pyrimidin-5-yl)-3-fluorophenyl)-4-(3-chloro-4-fluorophenyl)-3-methylimidazolidin-2-one] | > 7.00 |
| Cc1nc(N)c2c(-c3c(F)cc(N4CC(c5ccc(F)cc5F)N(C)C4=O)cc3F)cn(C)c2n1 (stereo not drawn) [Example 105, 1-(4-(4-amino-2,7-dimethyl-7H-pyrrolo[2,3-d]pyrimidin-5-yl)-3,5-difluorophenyl)-4-(2,4-difluorophenyl)-3-methylimidazolidin-2-one] | 6.00 to 7.00 |
| CN1C(=O)N(c2ccc(-c3cn(C)c4ncnc(N)c34)c(F)c2)CC1c1cc(F)cc(F)c1F (single isomer, unassigned) [Example 141, 1-(4-(4-amino-7-methyl-7H-pyrrolo[2,3-d]pyrimidin-5-yl)-3-fluorophenyl)-3-methyl-4-(2,3,5-trifluorophenyl)imidazolidin-2-one] | 6.00 to 7.00 |
| Cc1nc(N)c2c(-c3ccc(N4CC(c5cc(F)ccc5F)N(C)C4=O)cc3F)cn(C)c2n1 (single isomer, unassigned) [Example 37, 1-(4-(4-amino-2,7-dimethyl-7H-pyrrolo[2,3-d]pyrimidin-5-yl)-3-fluorophenyl)-4-(2,5-difluorophenyl)-3-methylimidazolidin-2-one] | 6.00 to 7.00 |
| CN1C(=O)N(c2ccc(-c3cn(C)c4ncnc(N)c34)c(F)c2)CC1c1cc(F)ccc1F (stereo not drawn) [Example 18, 1-(4-(4-amino-7-methyl-7H-pyrrolo[2,3-d]pyrimidin-5-yl)-3-fluorophenyl)-4-(2,5-difluorophenyl)-3-methylimidazolidin-2-one] | 6.00 to 7.00 |
| CCN1C(=O)N(c2ccc(-c3cn(C)c4ncnc(N)c34)c(F)c2)CC1c1cc(F)cc(F)c1 (single isomer, unassigned) [Example 171, 1-(4-(4-amino-7-methyl-7H-pyrrolo[2,3-d]pyrimidin-5-yl)-3-fluorophenyl)-4-(3,5-difluorophenyl)-3-ethylimidazolidin-2-one] | > 7.00 |

— patent US20180237441A1, “Chemical Compounds” (GlaxoSmithKline Intellectual Property (No.2) Limited, priority 2015, published 2018)
